Here are results for one molecule from patent publication US9726659B2, “CMPF as a biomarker for diabetes and associated methods” (The Governing Council of the University of Toronto, priority 2012, dated 2017).

The test system of this assay is islets. The assay is described as follows: Insulin and proinsulin in the media of 24 hr treated islets. It is filed as cell-based, mouse. Particulars: 24 hr treatment. As for the experimental part: A) Proinsulin in the media of 24 hr treated islets (n=4/group). B) Mitochondrial membrane potential (MMP) following acute addition of vehicle control or 200 μM of CMPF (N=3/group). C) ROS levels in 4- and 24-hour treated mouse islets with representative images (N=10-15 islets/mouse from 4 mice/group). D) Expression of antioxidant genes Cat and (e) Ucp2 (n=4/group). F) ROS accumulation in 24 hr-treated islets treated with 500 μM NAC (n=10 islets/mouse from 4 mice/group). G) GSIS and (h) total insulin content from 24 hr-treated islets co-treated with 500 μM NAC (n=4/group). Western blots showing (i) Ser9 phosphorylation of GSK3β, (j) Ser473 phosphorylation of AKT (n=3/group). K) Immunofluorescent staining showing nuclear translocation of FOXO1 and (l) PDX1 with CMPF and NAC treatment (n=3-6). Quantification of nuclear percentage of (m) FOXO1 and (n) PDX1 based on immunofluorescent staining with CMPF and NAC treatment. […]
Lower total insulin content may be due to beta-cell exhaustion caused by over-stimulation and/or defective insulin production. To determine the mechanism through which CMPF diminishes insulin content, we measured insulin in the media following 24 hr treatment. […] To first determine if CMPF is metabolized by beta-cells, we measured changes in mitochondrial membrane potential (MMP) in mouse islets acutely treated with CMPF. […]

Turning to `CCCc1oc(CCC(=O)O)c(C(=O)O)c1C` [CMPF, 3-carboxy-4-methyl-5-propyl-2-furanpropanoic acid], the “accumulation of total insulin in the media” value is given as “no difference” and the “proinsulin in the media” value was “substantially more proinsulin”.
